From patent US12564596B2, “Agents and methods for modulating pathogen activity” (Griffith University, priority 2018, dated 2026)

Experiments:
N. gonorrhoeae strains = experiment: Well diffusion assay in the absence of human cells; design: species or system Neisseria gonorrhoeae; settings: GC-agar, overnight 37° C.; 100 μM to 100 μM [sic]
Description: (§1) FIG. 22 is a graphical representation showing the effect of carbamazepine on N. gonorrhoeae in the absence of human cells. Well diffusion assays were performed in which N. gonorrhoeae strains were spread uniformly across the surface of GC-agar plates at a culture density of 10^7 bacterial per mL. Wells were then punctured within the agar surface to which carbamazepine (Cz; […], as noted), 0.2 μg/mL ceftriaxone (Cfx), 10 μg/mL ciprofloxacin (Cip), or 1% DMSO (vehicle control) were added. […] For agar plates in which a ZOI was not visible, data were recorded as the diameter of the well (6 mm), as indicated. Assays were performed in triplicate on 3 separate occasions. Data are presented as the mean and variance of the average values obtained for each assay; statistical significance was determined using a Student's t-test. […] This is consistent with a CR3-dependent, host-mediated mechanism of killing.
as §1, with “23” for “22”, “methyldopa” for “carbamazepine”, “methyldopa (Md;” for “carbamazepine (Cz;”
FIG. 24 is a graphical representation showing the effect of flufenamic acid on N. gonorrhoeae in the absence of human cells. Well diffusion assays were performed in which N. gonorrhoeae strains were spread uniformly across the surface of GC-agar plates at a culture density of 10^7 bacterial per mL. Wells were then punctured within the agar surface to which flufenamic acid ([…], as noted), 0.2 μg/mL ceftriaxone, 10 μg/mL ciprofloxacin, or 1% DMSO (vehicle control) were added. […] For agar plates in which a ZOI was not visible, data were recorded as the diameter of the well (6 mm), as indicated. Assays were performed in triplicate on 3 separate occasions. Data are presented as the mean and variance of the average values obtained for each assay; statistical significance was determined using a Student's t-test.

[1] = system: primary T-cell derived WITO HIV interaction with human rI-domain; experiment: SPR 1:1 competition assay, WITO HIV binding to rI-domain; settings: for % inhibition: 1:1 competition, 1 μM, 1 µM
Description: For competition analysis SPR of the HIV interaction with human rI-domain, primary T-cell derived WITO HIV was immobilized on a Cl sensor chip surface. Human rI-domain, drug or drug and human rI-domain were flowed at 1 μM over the immobilized HIV and the response units of the interactions were recorded. Any drug that could not compete with the virus or pilin binding to the rI-domain was also discarded. Remaining drugs were evaluated for known safety in humans and known therapeutic concentrations to determine if the drug would be tested, and at what concentrations, in in vitro cell models. All SPR sensorgrams and results plots were analyzed with Biacore S200 Evaluation Software (GE Healthcare Life Sciences).

NC(=O)N1c2ccccc2C=Cc2ccccc21 [carbamazepine, 5H-dibenzo[b,f]azepine-5-carboxamide]
effect on N. gonorrhoeae in the absence of human cells (zone of inhibition) (N. gonorrhoeae strains): no effect | % inhibition ([1]; listed as CARBAMAZEPINE): 97.09% | % inhibition ([1]; listed as Carbamazepine): ~97% | Block HIV in SPR ([1]; direct competition SPR): Yes | Drug RU ([1]; drug alone flowed at 1 μM over immobilized WITO HIV): 0.227 RU | Pilin + Drug RU ([1]; drug and human rI-domain flowed at 1 μM, 1:1): 1.772 RU
